Test results: ChEMBL document CHEMBL1177853, “Synthesis and pharmacological evaluation of novel substituted 9-deazaxanthines as A2B receptor antagonists” (Eur J Med Chem, 2010)

molecular target: T1, Adenosine receptor A3 (Homo sapiens) (UniProt P0DMS8); experiment: Displacement of [3H]NECA from human recombinant adenosine A3 receptor expressed in human HeLa cells at 1 uM after 180 mins by scintillation counting; assay type: cell-based
T1 sequence (whole entry): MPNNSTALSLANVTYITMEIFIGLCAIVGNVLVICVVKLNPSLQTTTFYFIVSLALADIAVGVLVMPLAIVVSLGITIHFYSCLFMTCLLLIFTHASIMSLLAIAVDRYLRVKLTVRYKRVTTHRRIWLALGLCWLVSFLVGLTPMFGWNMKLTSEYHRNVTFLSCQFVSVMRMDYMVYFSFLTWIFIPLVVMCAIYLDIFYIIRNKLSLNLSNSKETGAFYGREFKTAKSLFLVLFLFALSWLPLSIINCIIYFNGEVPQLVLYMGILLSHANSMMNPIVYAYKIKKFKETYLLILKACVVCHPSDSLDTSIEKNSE

How did the inhibition turn out when CCCn1c(=O)[nH]c(=O)c2[nH]c(-c3ccc(OCC(=O)N4CCN(c5ccccc5)CC4)cc3)cc21 was run?
Its inhibition is 15%.

How did the inhibition turn out when CCCn1c(=O)[nH]c2cc(-c3ccc(OCC(=O)Nc4ccc(F)cc4)cc3)[nH]c2c1=O was run?
The inhibition was 2%.

For CCCn1c(=O)c2c(cc(-c3ccc(OCC(=O)Nc4ccc(F)cc4)cc3)n2C)n(CCC)c1=O, which inhibition is on record?
The inhibition was 1%.

How did the inhibition turn out when CCCn1c(=O)[nH]c(=O)c2[nH]c(-c3ccc(OCC(=O)Nc4ccccc4)cc3)cc21 was run?
The inhibition was 1%.

With CCCn1c(=O)[nH]c2cc(-c3ccc(OCC(=O)Nc4ccc(Br)cc4)cc3)[nH]c2c1=O as the compound, how does the inhibition read?
The inhibition was 14%.

Which inhibition does the source give for CCCn1c(=O)[nH]c2cc(-c3ccc(OCc4nc(-c5ccc(Br)cc5)no4)cc3)[nH]c2c1=O here?
Its inhibition is 2%.

How did the inhibition turn out when CCCn1c(=O)c2c(cc(-c3ccc(OCC(=O)N4CCN(c5ccccc5)CC4)cc3)n2C)n(CCC)c1=O was run?
The inhibition was 2%.

CCCn1c(=O)[nH]c(=O)c2[nH]c(-c3ccc(OCC(=O)N4CCc5ccccc5C4)cc3)cc21 was tested. Which inhibition did it give?
Its inhibition is 1%.

How did the inhibition turn out when CCCn1c(=O)c2c(cc(-c3ccc(OCC(=O)Nc4ccc(F)cc4)cc3)n2C)n(C)c1=O was run?
The inhibition was 6%.

For CCCn1c(=O)c2c(cc(-c3ccc(OCC(=O)N4CCc5ccccc5C4)cc3)n2C)n(CCC)c1=O, which inhibition is on record?
The inhibition was 9%.

How did the inhibition turn out when CCCn1c(=O)[nH]c(=O)c2[nH]c(-c3ccc(OCC(=O)Nc4ccc(Br)cc4)cc3)cc21 was run?
Its inhibition is 28%.

How did the inhibition turn out when CCCn1c(=O)[nH]c(=O)c2[nH]c(-c3ccc(OCC(=O)Nc4ccc(F)cc4)cc3)cc21 was run?
The inhibition was 3%.

Which inhibition does the source give for COc1cc(OCc2nc(-c3ccc(Br)cc3)no2)ccc1-c1cc2c([nH]1)c(=O)n(C)c(=O)n2C here?
The inhibition was 3%.

species on record: Homo sapiens; experiment: Selectivity ratio of Ki for human recombinant adenosine A2B receptor to Ki for human recombinant adenosine A1 receptor

For CCCn1c(=O)[nH]c2cc(-c3ccc(OCC(=O)Nc4ccc(F)cc4)cc3)[nH]c2c1=O, which Ratio pKi is on record?
The Ratio pKi was 32.4.

How did the Ratio pKi turn out when CCCn1c(=O)[nH]c2cc(-c3ccc(OCC(=O)Nc4ccc(Br)cc4)cc3)[nH]c2c1=O was run?
Its Ratio pKi is 0.49.

How did the Ratio pKi turn out when CCCn1c(=O)c2c(cc(-c3ccc(OCC(=O)Nc4ccc(F)cc4)cc3)n2C)n(C)c1=O was run?
The Ratio pKi was 5.89.

species on record: Homo sapiens; experiment: Selectivity ratio of Ki for human recombinant adenosine A2B receptor to Ki for human recombinant adenosine A2A receptor

CCCn1c(=O)[nH]c2cc(-c3ccc(OCC(=O)Nc4ccc(F)cc4)cc3)[nH]c2c1=O was tested. Which Ratio pKi did it give?
Its Ratio pKi is 2750.

How did the Ratio pKi turn out when COc1cc(OCc2nc(-c3ccc(Br)cc3)no2)ccc1-c1cc2c([nH]1)c(=O)n(C)c(=O)n2C was run?
The Ratio pKi was 17.4.

molecular target: T2, Adenosine receptor A2a (Homo sapiens, UniProt P29274); experiment: Displacement of [3H]ZM241385 from human recombinant adenosine A2A receptor expressed in human HeLa cells after 30 mins; assay type: cell-based
T2 sequence (P29274 whole entry): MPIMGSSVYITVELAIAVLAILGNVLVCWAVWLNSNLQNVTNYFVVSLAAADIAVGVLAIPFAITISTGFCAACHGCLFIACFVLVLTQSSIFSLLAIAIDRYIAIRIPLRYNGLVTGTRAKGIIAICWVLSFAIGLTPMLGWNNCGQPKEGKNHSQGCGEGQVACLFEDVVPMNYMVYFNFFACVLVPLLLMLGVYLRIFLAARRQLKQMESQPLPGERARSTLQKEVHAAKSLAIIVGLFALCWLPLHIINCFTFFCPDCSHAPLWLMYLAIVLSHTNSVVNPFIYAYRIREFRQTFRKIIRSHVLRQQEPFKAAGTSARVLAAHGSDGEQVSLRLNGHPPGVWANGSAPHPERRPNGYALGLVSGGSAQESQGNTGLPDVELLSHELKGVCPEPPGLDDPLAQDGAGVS

CCCn1c(=O)[nH]c2cc(-c3ccc(OCC(=O)Nc4ccc(F)cc4)cc3)[nH]c2c1=O was tested. Which Ki did it give?
The Ki was 6460 nM.

For COc1cc(OCc2nc(-c3ccc(Br)cc3)no2)ccc1-c1cc2c([nH]1)c(=O)n(C)c(=O)n2C, which Ki is on record?
Its Ki is 708 nM.

molecular target: T2, Adenosine receptor A2a; experiment: Displacement of [3H]ZM241385 from human recombinant adenosine A2A receptor expressed in human HeLa cells at 1 uM after 30 mins; assay type: cell-based

Which inhibition does the source give for CCCn1c(=O)[nH]c(=O)c2[nH]c(-c3ccc(OCC(=O)N4CCN(c5ccccc5)CC4)cc3)cc21 here?
The inhibition was 33%.

With CCCn1c(=O)c2c(cc(-c3ccc(OCC(=O)Nc4ccc(F)cc4)cc3)n2C)n(CCC)c1=O as the compound, how does the inhibition read?
Its inhibition is 15%.

With CCCn1c(=O)[nH]c(=O)c2[nH]c(-c3ccc(OCC(=O)Nc4ccccc4)cc3)cc21 as the compound, how does the inhibition read?
The inhibition was 17%.

For CCCn1c(=O)[nH]c2cc(-c3ccc(OCC(=O)Nc4ccc(Br)cc4)cc3)[nH]c2c1=O, which inhibition is on record?
Its inhibition is 43%.

How did the inhibition turn out when CCCn1c(=O)[nH]c2cc(-c3ccc(OCc4nc(-c5ccc(Br)cc5)no4)cc3)[nH]c2c1=O was run?
Its inhibition is 11%.

CCCn1c(=O)c2c(cc(-c3ccc(OCC(=O)N4CCN(c5ccccc5)CC4)cc3)n2C)n(CCC)c1=O was tested. Which inhibition did it give?
The inhibition was 22%.

With CCCn1c(=O)[nH]c(=O)c2[nH]c(-c3ccc(OCC(=O)N4CCc5ccccc5C4)cc3)cc21 as the compound, how does the inhibition read?
The inhibition was 12%.

For CCCn1c(=O)c2c(cc(-c3ccc(OCC(=O)Nc4ccc(F)cc4)cc3)n2C)n(C)c1=O, which inhibition is on record?
The inhibition was 11%.

CCCn1c(=O)c2c(cc(-c3ccc(OCC(=O)N4CCc5ccccc5C4)cc3)n2C)n(CCC)c1=O was tested. Which inhibition did it give?
The inhibition was 29%.

How did the inhibition turn out when CCCn1c(=O)[nH]c(=O)c2[nH]c(-c3ccc(OCC(=O)Nc4ccc(Br)cc4)cc3)cc21 was run?
The inhibition was 22%.

With CCCn1c(=O)[nH]c(=O)c2[nH]c(-c3ccc(OCC(=O)Nc4ccc(F)cc4)cc3)cc21 as the compound, how does the inhibition read?
Its inhibition is 36%.

molecular target: T3, Adenosine receptor A2b (Homo sapiens, UniProt P29275); experiment: Displacement of [3H]DPCPX from human recombinant adenosine A2B receptor expressed in HEK293 cells after 30 mins; assay type: cell-based
T3 sequence (P29275 whole entry): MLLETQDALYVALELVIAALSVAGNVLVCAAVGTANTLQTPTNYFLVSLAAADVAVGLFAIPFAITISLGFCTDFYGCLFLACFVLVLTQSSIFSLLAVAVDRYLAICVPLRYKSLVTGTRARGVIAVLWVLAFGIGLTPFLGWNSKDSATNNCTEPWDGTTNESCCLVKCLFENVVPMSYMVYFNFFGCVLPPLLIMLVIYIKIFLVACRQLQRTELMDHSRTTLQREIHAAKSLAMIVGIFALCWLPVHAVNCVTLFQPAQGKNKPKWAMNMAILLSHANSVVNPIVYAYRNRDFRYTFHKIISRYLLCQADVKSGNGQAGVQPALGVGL

For CCCn1c(=O)[nH]c(=O)c2[nH]c(-c3ccc(OCC(=O)N4CCN(c5ccccc5)CC4)cc3)cc21, which Ki is on record?
The Ki was 115 nM.

CCCn1c(=O)[nH]c2cc(-c3ccc(OCC(=O)Nc4ccc(F)cc4)cc3)[nH]c2c1=O was tested. Which Ki did it give?
The Ki was 2.34 nM.

How did the Ki turn out when CCCn1c(=O)[nH]c(=O)c2[nH]c(-c3ccc(OCC(=O)Nc4ccccc4)cc3)cc21 was run?
Its Ki is 1050 nM.

With CCCn1c(=O)[nH]c2cc(-c3ccc(OCC(=O)Nc4ccc(Br)cc4)cc3)[nH]c2c1=O as the compound, how does the Ki read?
The Ki was 3.55 nM.

How did the Ki turn out when CCCn1c(=O)[nH]c2cc(-c3ccc(OCc4nc(-c5ccc(Br)cc5)no4)cc3)[nH]c2c1=O was run?
Its Ki is 31.6 nM.

CCCn1c(=O)[nH]c(=O)c2[nH]c(-c3ccc(OCC(=O)N4CCc5ccccc5C4)cc3)cc21 was tested. Which Ki did it give?
Its Ki is 79.4 nM.

For CCCn1c(=O)c2c(cc(-c3ccc(OCC(=O)Nc4ccc(F)cc4)cc3)n2C)n(C)c1=O, which Ki is on record?
The Ki was 30.9 nM.

With CCCn1c(=O)c2c(cc(-c3ccc(OCC(=O)N4CCc5ccccc5C4)cc3)n2C)n(CCC)c1=O as the compound, how does the Ki read?
The Ki was 97.7 nM.

With CCCn1c(=O)[nH]c(=O)c2[nH]c(-c3ccc(OCC(=O)Nc4ccc(Br)cc4)cc3)cc21 as the compound, how does the Ki read?
The Ki was 21.9 nM.

Which Ki does the source give for CCCn1c(=O)[nH]c(=O)c2[nH]c(-c3ccc(OCC(=O)Nc4ccc(F)cc4)cc3)cc21 here?
Its Ki is 100 nM.

Which Ki does the source give for COc1cc(OCc2nc(-c3ccc(Br)cc3)no2)ccc1-c1cc2c([nH]1)c(=O)n(C)c(=O)n2C here?
The Ki was 40.7 nM.

molecular target: T4, Adenosine receptor A1 (Homo sapiens, UniProt P30542); experiment: Displacement of [3H]DPCPX from human recombinant adenosine A1 receptor expressed in CHO-A1 cells after 60 mins; assay type: cell-based
T4 sequence (P30542 whole entry): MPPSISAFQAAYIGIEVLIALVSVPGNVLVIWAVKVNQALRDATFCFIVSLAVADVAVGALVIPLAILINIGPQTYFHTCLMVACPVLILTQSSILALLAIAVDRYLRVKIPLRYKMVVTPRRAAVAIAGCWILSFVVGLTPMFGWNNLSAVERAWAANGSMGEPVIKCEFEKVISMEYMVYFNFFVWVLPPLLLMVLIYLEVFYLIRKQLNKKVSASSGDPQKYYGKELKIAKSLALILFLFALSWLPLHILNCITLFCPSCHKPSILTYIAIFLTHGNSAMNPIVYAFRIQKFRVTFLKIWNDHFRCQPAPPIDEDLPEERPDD

With CCCn1c(=O)[nH]c2cc(-c3ccc(OCC(=O)Nc4ccc(F)cc4)cc3)[nH]c2c1=O as the compound, how does the Ki read?
The Ki was 75.9 nM.

How did the Ki turn out when CCCn1c(=O)[nH]c2cc(-c3ccc(OCC(=O)Nc4ccc(Br)cc4)cc3)[nH]c2c1=O was run?
The Ki was 1.74 nM.

Which Ki does the source give for COc1cc(OCc2nc(-c3ccc(Br)cc3)no2)ccc1-c1cc2c([nH]1)c(=O)n(C)c(=O)n2C here?
Its Ki is 182 nM.

molecular target: T5, Adenosine receptor A2b (Homo sapiens) (UniProt P29275); experiment: Displacement of [3H]DPCPX from human recombinant adenosine A2B receptor expressed in HEK293 cells at 1 uM after 30 mins; assay type: cell-based
T5 sequence (whole entry): T3 sequence (P29275 whole entry)

With CCCn1c(=O)c2c(cc(-c3ccc(OCC(=O)Nc4ccc(F)cc4)cc3)n2C)n(CCC)c1=O as the compound, how does the inhibition read?
The inhibition was 20%.

How did the inhibition turn out when CCCn1c(=O)c2c(cc(-c3ccc(OCC(=O)N4CCN(c5ccccc5)CC4)cc3)n2C)n(CCC)c1=O was run?
Its inhibition is 36%.

molecular target: T6, Adenosine receptor A1 (Homo sapiens) (UniProt P30542); experiment: Displacement of [3H]DPCPX from human recombinant adenosine A1 receptor expressed in CHO-A1 cells at 1 uM after 60 mins; assay type: cell-based
T6 sequence (whole entry): T4 sequence (P30542 whole entry)

Which inhibition does the source give for CCCn1c(=O)[nH]c(=O)c2[nH]c(-c3ccc(OCC(=O)N4CCN(c5ccccc5)CC4)cc3)cc21 here?
Its inhibition is 23%.

With CCCn1c(=O)c2c(cc(-c3ccc(OCC(=O)Nc4ccc(F)cc4)cc3)n2C)n(CCC)c1=O as the compound, how does the inhibition read?
Its inhibition is 9%.

Which inhibition does the source give for CCCn1c(=O)[nH]c(=O)c2[nH]c(-c3ccc(OCC(=O)Nc4ccccc4)cc3)cc21 here?
Its inhibition is 0.5%.

With CCCn1c(=O)[nH]c2cc(-c3ccc(OCc4nc(-c5ccc(Br)cc5)no4)cc3)[nH]c2c1=O as the compound, how does the inhibition read?
Its inhibition is 21%.

For CCCn1c(=O)c2c(cc(-c3ccc(OCC(=O)N4CCN(c5ccccc5)CC4)cc3)n2C)n(CCC)c1=O, which inhibition is on record?
Its inhibition is 22%.

How did the inhibition turn out when CCCn1c(=O)[nH]c(=O)c2[nH]c(-c3ccc(OCC(=O)N4CCc5ccccc5C4)cc3)cc21 was run?
Its inhibition is 9%.

CCCn1c(=O)c2c(cc(-c3ccc(OCC(=O)N4CCc5ccccc5C4)cc3)n2C)n(CCC)c1=O was tested. Which inhibition did it give?
The inhibition was 19%.

For CCCn1c(=O)[nH]c(=O)c2[nH]c(-c3ccc(OCC(=O)Nc4ccc(Br)cc4)cc3)cc21, which inhibition is on record?
Its inhibition is 41%.

Which inhibition does the source give for CCCn1c(=O)[nH]c(=O)c2[nH]c(-c3ccc(OCC(=O)Nc4ccc(F)cc4)cc3)cc21 here?
The inhibition was 2%.

Which inhibition does the source give for COc1cc(OCc2nc(-c3ccc(Br)cc3)no2)ccc1-c1cc2c([nH]1)c(=O)n(C)c(=O)n2C here?
Its inhibition is 36%.
